Reference: the NIST ThermoML archive (doi:10.1021/je700152c)
Numbers after ± are expanded uncertainties.

Assay: molar heat capacity at saturation pressure; xn = mol fraction of the nth substance listed

CCCCn1cc[n+](C)c1.Cc1ccc(S(=O)(=O)[O-])cc1 [1-butyl-3-methylimidazolium tosylate] + O
Settings | molar heat capacity [J/K/mol]
187.71 K, Metastable crystal, x1 = 0.83 | 257.58 ± 2.6
188.37 K, Crystal, x1 = 0.37 | 129.48 ± 1.5
189.01 K, Crystal, x1 = 0.3 | 108.8 ± 1.3
189.44 K, Crystal, x1 = 0.83 | 237.24 ± 2.3
189.61 K, Metastable crystal, x1 = 0.83 | 259.14 ± 2.6
191.25 K, Crystal, x1 = 0.37 | 131.12 ± 1.5
191.41 K, Crystal, x1 = 0.83 | 240.11 ± 2.3
191.51 K, Metastable crystal, x1 = 0.83 | 260.97 ± 2.6
191.66 K, Crystal, x1 = 0.3 | 109.86 ± 1.4
193.36 K, Crystal, x1 = 0.83 | 244.28 ± 2.3
193.41 K, Metastable crystal, x1 = 0.83 | 262.79 ± 2.6
194.12 K, Crystal, x1 = 0.37 | 132.64 ± 1.5
194.31 K, Crystal, x1 = 0.3 | 111.02 ± 1.4
195.3 K, Crystal, x1 = 0.83 | 250.02 ± 2.3
195.31 K, Metastable crystal, x1 = 0.83 | 264.88 ± 2.6
196.95 K, Crystal, x1 = 0.3 | 112.29 ± 1.4
196.98 K, Crystal, x1 = 0.37 | 134.15 ± 1.5
197.21 K, Metastable crystal, x1 = 0.83 | 268.01 ± 2.6
197.23 K, Crystal, x1 = 0.83 | 254.97 ± 2.6
199.09 K, Metastable crystal, x1 = 0.83 | 272.44 ± 2.6
199.14 K, Crystal, x1 = 0.83 | 258.88 ± 2.6
199.58 K, Crystal, x1 = 0.3 | 113.66 ± 1.4
199.84 K, Crystal, x1 = 0.37 | 135.92 ± 1.5
201 K, Metastable crystal, x1 = 0.83 | 280.52 ± 2.6
201.17 K, Crystal, x1 = 0.83 | 262.53 ± 2.6
201.54 K, Crystal, x1 = 0.3 | 114.83 ± 1.4
201.97 K, Crystal, x1 = 0.37 | 137.43 ± 1.5
202.83 K, Crystal, x1 = 0.3 | 115.46 ± 1.4
202.96 K, Metastable crystal, x1 = 0.83 | 287.56 ± 2.9
203.32 K, Crystal, x1 = 0.83 | 264.88 ± 2.6
203.36 K, Crystal, x1 = 0.37 | 138.57 ± 1.5
204.12 K, Crystal, x1 = 0.3 | 115.99 ± 1.4
204.75 K, Crystal, x1 = 0.37 | 139.08 ± 1.5
204.92 K, Metastable crystal, x1 = 0.83 | 289.38 ± 2.9
205.4 K, Crystal, x1 = 0.3 | 116.63 ± 1.4
205.47 K, Crystal, x1 = 0.83 | 266.7 ± 2.6
206.15 K, Crystal, x1 = 0.37 | 140.46 ± 1.5
206.69 K, Crystal, x1 = 0.3 | 117.05 ± 1.4
206.89 K, Metastable crystal, x1 = 0.83 | 290.69 ± 2.9
207.55 K, Crystal, x1 = 0.37 | 141.22 ± 1.6
207.62 K, Crystal, x1 = 0.83 | 268.53 ± 2.6
207.98 K, Crystal, x1 = 0.3 | 117.58 ± 1.4
208.85 K, Metastable crystal, x1 = 0.83 | 291.99 ± 2.9
208.96 K, Crystal, x1 = 0.37 | 142.1 ± 1.6
209.26 K, Crystal, x1 = 0.3 | 118 ± 1.4
209.77 K, Crystal, x1 = 0.83 | 270.61 ± 2.6
210.37 K, Crystal, x1 = 0.37 | 142.86 ± 1.6
210.55 K, Crystal, x1 = 0.3 | 118.74 ± 1.4
210.81 K, Metastable crystal, x1 = 0.83 | 293.03 ± 2.9
211.79 K, Crystal, x1 = 0.37 | 143.62 ± 1.6
211.84 K, Crystal, x1 = 0.3 | 119.27 ± 1.4
211.92 K, Crystal, x1 = 0.83 | 272.7 ± 2.6
212.77 K, Metastable crystal, x1 = 0.83 | 294.34 ± 2.9
213.13 K, Crystal, x1 = 0.3 | 120.22 ± 1.4
213.22 K, Crystal, x1 = 0.37 | 144.25 ± 1.6
214.07 K, Crystal, x1 = 0.83 | 274.78 ± 2.6
214.41 K, Crystal, x1 = 0.3 | 121.91 ± 1.4
214.66 K, Crystal, x1 = 0.37 | 145.26 ± 1.6
214.74 K, Metastable crystal, x1 = 0.83 | 295.64 ± 2.9
215.69 K, Crystal, x1 = 0.3 | 123.6 ± 1.5
216.09 K, Crystal, x1 = 0.37 | 146.27 ± 1.6
216.21 K, Crystal, x1 = 0.83 | 276.87 ± 2.6
216.7 K, Metastable crystal, x1 = 0.83 | 296.68 ± 2.9
216.97 K, Crystal, x1 = 0.3 | 125.51 ± 1.5
217.52 K, Crystal, x1 = 0.37 | 148.16 ± 1.6
218.24 K, Crystal, x1 = 0.3 | 127.73 ± 1.5
218.36 K, Crystal, x1 = 0.83 | 278.69 ± 2.6
218.66 K, Metastable crystal, x1 = 0.83 | 297.99 ± 2.9
218.93 K, Crystal, x1 = 0.37 | 150.81 ± 1.6
219.5 K, Crystal, x1 = 0.3 | 130.37 ± 1.5
220.33 K, Crystal, x1 = 0.37 | 154.98 ± 1.6
220.5 K, Crystal, x1 = 0.83 | 280.78 ± 2.6
220.62 K, Metastable crystal, x1 = 0.83 | 299.29 ± 2.9
220.76 K, Crystal, x1 = 0.3 | 133.97 ± 1.5
221.7 K, Crystal, x1 = 0.37 | 161.54 ± 1.8
222 K, Crystal, x1 = 0.3 | 138.72 ± 1.6
222.58 K, Metastable crystal, x1 = 0.83 | 300.59 ± 2.9
222.65 K, Crystal, x1 = 0.83 | 282.87 ± 2.6
223.04 K, Crystal, x1 = 0.37 | 170.5 ± 1.8
223.23 K, Crystal, x1 = 0.3 | 144.64 ± 1.6
224.35 K, Crystal, x1 = 0.37 | 182.11 ± 1.9
224.44 K, Crystal, x1 = 0.3 | 151.62 ± 1.7
224.54 K, Metastable crystal, x1 = 0.83 | 301.9 ± 2.9
224.8 K, Crystal, x1 = 0.83 | 284.95 ± 2.9
225.63 K, Crystal, x1 = 0.3 | 159.55 ± 1.7
225.63 K, Crystal, x1 = 0.37 | 195.24 ± 2
226.5 K, Metastable crystal, x1 = 0.83 | 303.2 ± 2.9
226.79 K, Crystal, x1 = 0.3 | 169.18 ± 1.8
226.88 K, Crystal, x1 = 0.37 | 210.13 ± 2.1
226.96 K, Crystal, x1 = 0.83 | 286.78 ± 2.9
227.92 K, Crystal, x1 = 0.3 | 180.91 ± 1.9
228.08 K, Crystal, x1 = 0.37 | 225.52 ± 2.3
228.46 K, Metastable crystal, x1 = 0.83 | 304.76 ± 2.9
229.02 K, Crystal, x1 = 0.3 | 196.03 ± 2
229.14 K, Crystal, x1 = 0.83 | 288.6 ± 2.9
229.24 K, Crystal, x1 = 0.37 | 246.35 ± 2.4
230.06 K, Crystal, x1 = 0.3 | 216.44 ± 2.2
230.36 K, Crystal, x1 = 0.37 | 271.97 ± 2.7
230.42 K, Metastable crystal, x1 = 0.83 | 306.33 ± 2.9
231.05 K, Crystal, x1 = 0.3 | 243.4 ± 2.4
231.35 K, Crystal, x1 = 0.83 | 290.43 ± 2.9
231.41 K, Crystal, x1 = 0.37 | 306.67 ± 3
231.97 K, Crystal, x1 = 0.3 | 279.14 ± 2.9
232.38 K, Metastable crystal, x1 = 0.83 | 307.89 ± 2.9
232.4 K, Crystal, x1 = 0.37 | 350.72 ± 3.4
232.82 K, Crystal, x1 = 0.3 | 325.66 ± 3.3
233.32 K, Crystal, x1 = 0.37 | 386.68 ± 3.5
233.59 K, Crystal, x1 = 0.3 | 384.24 ± 3.9
233.59 K, Crystal, x1 = 0.83 | 291.21 ± 2.9
234.25 K, Crystal, x1 = 0.37 | 311.22 ± 3.5
234.29 K, Crystal, x1 = 0.3 | 455.08 ± 4.7
234.34 K, Metastable crystal, x1 = 0.83 | 309.46 ± 2.9
234.92 K, Crystal, x1 = 0.3 | 526.56 ± 4.9
235.39 K, Crystal, x1 = 0.37 | 181.61 ± 2.1
235.5 K, Crystal, x1 = 0.3 | 534.91 ± 5.8
235.86 K, Crystal, x1 = 0.83 | 290.16 ± 2.9
236.15 K, Crystal, x1 = 0.3 | 325.13 ± 5.4
236.31 K, Metastable crystal, x1 = 0.83 | 310.24 ± 2.9
236.7 K, Crystal, x1 = 0.37 | 181.73 ± 1.9
237.09 K, Crystal, x1 = 0.3 | 171.82 ± 2.3
238 K, Crystal, x1 = 0.37 | 183.25 ± 1.9
238.22 K, Crystal, x1 = 0.83 | 290.95 ± 2.9
238.25 K, Crystal, x1 = 0.3 | 170.34 ± 1.8
238.27 K, Metastable crystal, x1 = 0.83 | 311.54 ± 2.9
239.3 K, Crystal, x1 = 0.37 | 184.76 ± 1.9
239.4 K, Crystal, x1 = 0.3 | 171.4 ± 1.8
240.23 K, Metastable crystal, x1 = 0.83 | 313.11 ± 2.9
240.46 K, Crystal, x1 = 0.83 | 293.81 ± 2.9
240.56 K, Crystal, x1 = 0.3 | 172.98 ± 1.8
240.6 K, Crystal, x1 = 0.37 | 186.27 ± 1.9
241.71 K, Crystal, x1 = 0.3 | 174.78 ± 1.8
241.9 K, Crystal, x1 = 0.37 | 188.17 ± 2
242.19 K, Metastable crystal, x1 = 0.83 | 315.19 ± 2.9
242.68 K, Crystal, x1 = 0.83 | 297.2 ± 2.9
242.86 K, Crystal, x1 = 0.3 | 176.47 ± 1.9
243.19 K, Crystal, x1 = 0.37 | 189.93 ± 2
244.01 K, Crystal, x1 = 0.3 | 178.27 ± 1.9
244.14 K, Metastable crystal, x1 = 0.83 | 317.28 ± 2.9
244.48 K, Crystal, x1 = 0.37 | 191.7 ± 2
244.87 K, Crystal, x1 = 0.83 | 300.59 ± 2.9
245.15 K, Crystal, x1 = 0.3 | 179.96 ± 1.9
245.76 K, Crystal, x1 = 0.37 | 193.72 ± 2
246.08 K, Metastable crystal, x1 = 0.83 | 319.62 ± 3.1
